pIC50: −log10 of the molar value.

The term pIC50 denotes −log10 of the IC50, conventionally taken in molar units.

In this assay the test system is HIV. The assay can be described thus: MT4 assay (anti-HIV activity). The format is cell-based. The conditions noted are these: Human immunodeficiency virus 1, 96 h, antiviral HIV activity in HTLV-1 transformed cell line MT-4; luciferase read 96 hours later; 10 point dose response. Here is the method: Antiviral HIV activity and cytotoxicity values for compounds of the invention from Table 1 were measured in parallel in the HTLV-1 transformed cell line MT-4 based on the method previously described (Hazen et al., 2007, In vitro antiviral activity of the novel, tyrosyl-based human immunodeficiency virus (HIV) type 1 protease inhibitor brecanavir (GW640385) in combination with other antiretrovirals and against a panel of protease inhibitor-resistant HIV (Hazen et al., “In vitro antiviral activity of the novel, tyrosyl-based human immunodeficiency virus (HIV) type 1 protease inhibitor brecanavir (GW640385) in combination with other antiretrovirals and against a panel of protease inhibitor-resistant HIV”, Antimicrob. Agents Chemother. 2007, 51: 3147-3154; and Pauwels et al., “Sensitive and rapid assay on MT-4 cells for the detection of antiviral compounds against the AIDS virus”, J. of Virological Methods 1987, 16: 171-185).
Luciferase activity was measured 96 hours later by adding a cell titer glo (Promega, Madison, Wis.). Percent inhibition of cell protection data was plotted relative to no compound control. Under the same condition, cytotoxicity of the compounds was determined using cell titer Glo™ (Promega, Madison, Wis.). IC50s were determined from a 10 point dose response curve using 3-4-fold serial dilution for each compound, which spans a concentration range >1000 fold.
These values are plotted against the molar compound concentrations using the standard four parameter logistic equation:
y=((Vmax*x̂n)/(K̂n+x̂n))+Y2
Y2=minimum y n=slope factor
Vmax=maximum y x=compound concentration [M]
In the case of `COc1ccc(C(=O)N2CCc3c(C)c([C@H](OC(C)(C)C)C(=O)O)c(-c4cc(F)c5c(c4C)CCCO5)c(C)c3C2)cc1C` (atropisomer, axis not shown) [Example 97, (S)-2-(tert-butoxy)-2-((R)-7-(8-fluoro-5-methylchroman-6-yl)-2-(4-methoxy-3-methylbenzoyl)-5,8-dimethyl-1,2,3,4-tetrahydroisoquinolin-6-yl)acetic Acid], the pIC50 was 7.44.

On to `Cc1c(-c2c(C)c3c(c(C)c2[C@H](OC(C)(C)C)C(=O)O)CC(=O)N(c2cccc(F)c2)C3)cc(F)c2c1CCCO2` (atropisomer, axis not shown) [Example 103, (S)-2-(tert-Butoxy)-2-((R)-7-(8-fluoro-5-methylchroman-6-yl)-2-(3-fluorophenyl)-5,8-dimethyl-3-oxo-1,2,3,4-tetrahydroisoquinolin-6-yl)acetic Acid], for which the negative logarithm of the IC50 (pIC50) was 8.70.

As to `Cc1c(-c2c(C)c3c(c(C)c2[C@H](OC(C)(C)C)C(=O)O)CC(=O)N(C2CCCCC2)C3)cc(F)c2c1CCCO2` (atropisomer, axis not shown) [Example 104, (S)-2-(tert-butoxy)-2-((R)-2-cyclohexyl-7-(8-fluoro-5-methylchroman-6-yl)-5,8-dimethyl-3-oxo-1,2,3,4-tetrahydroisoquinolin-6-yl)acetic Acid], the pIC50 is 8.70. Then `Cc1c(-c2c(C)c3c(c(C)c2[C@H](OC(C)(C)C)C(=O)O)CC(=O)N(C2CCC(C)(C)CC2)C3)cc(F)c2c1CCCO2` (atropisomer, axis not shown) [Example 105, (S)-2-(tert-butoxy)-2-((R)-2-(4,4-dimethylcyclohexyl)-7-(8-fluoro-5-methylchroman-6-yl)-5,8-dimethyl-3-oxo-1,2,3,4-tetrahydroisoquinolin-6-yl)acetic Acid], with 8.70; and `Cc1c(-c2c(C)c3c(c(C)c2[C@H](OC(C)(C)C)C(=O)O)CC(=O)N(CC2CCCCC2)C3)cc(F)c2c1CCCO2` (atropisomer, axis not shown) [Example 106, (S)-2-(tert-butoxy)-2-((R)-2-(cyclohexylmethyl)-7-(8-fluoro-5-methylchroman-6-yl)-5,8-dimethyl-3-oxo-1,2,3,4-tetrahydroisoquinolin-6-yl)acetic Acid], with 8.52. As for `COc1c(F)cccc1N1Cc2c(C)c(-c3cc(F)c4c(c3C)CCCO4)c([C@H](OC(C)(C)C)C(=O)O)c(C)c2CC1=O` (atropisomer, axis not shown) [Example 107, (S)-2-(tert-butoxy)-2-((R)-2-(3-fluoro-2-methoxyphenyl)-7-(8-fluoro-5-methylchroman-6-yl)-5,8-dimethyl-3-oxo-1,2,3,4-tetrahydroisoquinolin-6-yl)acetic Acid], the negative logarithm of the IC50 (pIC50) is 8.70. With `Cc1c(-c2c(C)c3c(c(C)c2[C@H](OC(C)(C)C)C(=O)O)CC(=O)N(C2CCOCC2)C3)cc(F)c2c1CCCO2` (atropisomer, axis not shown) [Example 108, (S)-2-(tert-butoxy)-2-((R)-7-(8-fluoro-5-methylchroman-6-yl)-5,8-dimethyl-3-oxo-2-(tetrahydro-2H-pyran-4-yl)-1,2,3,4-tetrahydroisoquinolin-6-yl)acetic Acid], the pIC50 is 7.89. `Cc1c(-c2c(C)c3c(c(C)c2[C@H](OC(C)(C)C)C(=O)O)C(C)(C)C(=O)N(C2CCCCC2)C3)cc(F)c2c1CCCO2` (atropisomer, axis not shown) [Example 109]: the pIC50 is 8.40. In the case of `Cc1c(-c2c(C)c3c(c(C)c2[C@H](OC(C)(C)C)C(=O)O)CC(=O)N(CC(C)C)C3)cc(F)c2c1CCCO2` (atropisomer, axis not shown) [Example 110], the pIC50 was 8.52. Take `Cc1c(-c2c(C)c3c(c(C)c2[C@H](OC(C)(C)C)C(=O)O)CC(=O)N(C2CCN(C)CC2)C3)cc(F)c2c1CCCO2` (atropisomer, axis not shown) [Example 112, (S)-2-(tert-butoxy)-2-((R)-7-(8-fluoro-5-methylchroman-6-yl)-5,8-dimethyl-2-(1-methylpiperidin-4-yl)-3-oxo-1,2,3,4-tetrahydroisoquinolin-6-yl)acetic Acid]: the pIC50 is 5.98.

With `Cc1c(-c2c(C)c3c(c(C)c2[C@H](OC(C)(C)C)C(=O)O)CC(=O)N(CC2CCOCC2)C3)cc(F)c2c1CCCO2` (atropisomer, axis not shown) [Example 113], the pIC50 was 7.85. Turning to `Cc1c(-c2c(C)c3c(c(C)c2[C@H](OC(C)(C)C)C(=O)O)CC(=O)N(C2CCC(F)(F)CC2)C3)cc(F)c2c1CCCO2` (atropisomer, axis not shown) [Example 114, (S)-2-(tert-butoxy)-2-((R)-2-(4,4-difluorocyclohexyl)-7-(8-fluoro-5-methylchroman-6-yl)-5,8-dimethyl-3-oxo-1,2,3,4-tetrahydroisoquinolin-6-yl)acetic Acid], the negative-log IC50 (pIC50) is 8.52. Under `Cc1c(-c2c(C)c3c(c(C)c2[C@H](OC(C)(C)C)C(=O)O)CC(=O)N(C2CCN(C(=O)OC(C)(C)C)CC2)C3)cc(F)c2c1CCCO2` (atropisomer, axis not shown) [Example 115] stands 6.94; under `Cc1c(-c2c(C)c3c(c(C)c2[C@H](OC(C)(C)C)C(=O)O)CC(=O)N(C2CCCCC2)C3)cc(Cl)c2c1CCCO2` (atropisomer, axis not shown) [Example 118], 8.40; under `Cc1c(-c2c(C)c3c(c(C)c2[C@H](OC(C)(C)C)C(=O)O)CC(=O)N(C2CCCCC2)C3)ccc2c1NCCO2` (atropisomer, axis not shown) [Example 119, (S)-2-(tert-butoxy)-2-((R)-2-cyclohexyl-5,8-dimethyl-7-(5-methyl-3,4-dihydro-2H-benzo[b][1,4]oxazin-6-yl)-3-oxo-1,2,3,4-tetrahydroisoquinolin-6-yl)acetic Acid], 8.10. As for `Cc1c(-c2c(C)c3c(c(C)c2[C@H](OC(C)(C)C)C(=O)O)CC(=O)N(C2CCCCC2)C3)ccc2c1CCCO2` (atropisomer, axis not shown) [Example 120, (S)-2-(tert-butoxy)-2-((R)-2-cyclohexyl-5,8-dimethyl-7-(5-methylchroman-6-yl)-3-oxo-1,2,3,4-tetrahydroisoquinolin-6-yl)acetic Acid], the pIC50 is 8.70. For the molecule `Cc1c(-c2c(C)c3c(c(C)c2[C@H](OC(C)(C)C)C(=O)O)CCN(C2CCCCC2)C3)cc(F)c2c1CCCO2` (atropisomer, axis not shown; (M)) [Example 67, (2S)(M)-2-(tert-butoxy)-2-(2-cyclohexyl-7-(8-fluoro-5-methylchroman-6-yl)-5,8-dimethyl-1,2,3,4-tetrahydroisoquinolin-6-yl)acetic Acid], the pIC50 is 8.30. As to `Cc1c(-c2c(C)c3c(c(C)c2[C@H](OC(C)(C)C)C(=O)O)CCN(S(=O)(=O)C2CCCCC2)C3)ccc2c1CCCO2` (atropisomer, axis not shown; (M)) [Example 83, (2S)(M)-2-(tert-butoxy)-2-(-2-(cyclohexylsulfonyl)-5,8-dimethyl-7-(5-methylchroman-6-yl)-1,2,3,4-tetrahydroisoquinolin-6-yl)acetic Acid], the pIC50 was 7.34. Consider `Cc1c(-c2c(C)c3c(c(C)c2[C@H](OC(C)(C)C)C(=O)O)CCN(C2CCCCC2)C3)ccc2c1CCCO2` (atropisomer, axis not shown; (M)) [Example 84, (S)(M)-2-(tert-butoxy)-2-(2-cyclohexyl-5,8-dimethyl-7-(5-methylchroman-6-yl)-1,2,3,4-tetrahydroisoquinolin-6-yl)acetic Acid], for which the pIC50 is 8.30. Under `Cc1c(-c2c(C)c3c(c(C)c2[C@H](OC(C)(C)C)C(=O)O)CCN(S(=O)(=O)C2CCCCC2)C3)cc(Cl)c2c1CCCO2` (atropisomer, axis not shown; (M)) [Example 88, (S)(M)-2-(tert-butoxy)-2-(7-(8-chloro-5-methylchroman-6-yl)-2-(cyclohexylsulfonyl)-5,8-dimethyl-1,2,3,4-tetrahydroisoquinolin-6-yl)acetic Acid] stands 7.44. Regarding `Cc1c(-c2c(C)c3c(c(C)c2[C@H](OC(C)(C)C)C(=O)O)CCN(C2CCCCC2)C3)cc(Cl)c2c1CCCO2` (atropisomer, axis not shown; (M)) [Example 89, (S)(M)-2-(tert-butoxy)-2-(7-(8-chloro-5-methylchroman-6-yl)-2-cyclohexyl-5,8-dimethyl-1,2,3,4-tetrahydroisoquinolin-6-yl)acetic Acid], the pIC50 is 7.92. Consider `Cc1c(-c2c(C)c3c(c(C)c2[C@H](OC(C)(C)C)C(=O)O)CCN(S(=O)(=O)C2CCCCC2)C3)ccc2c1NCCO2` (atropisomer, axis not shown; (M)) [Example 95, (S)(M)-2-(tert-butoxy)-2-(2-(cyclohexylsulfonyl)-5,8-dimethyl-7-(5-methyl-3,4-dihydro-2H-benzo[b][1,4]oxazin-6-yl)-1,2,3,4-tetrahydroisoquinolin-6-yl)acetic Acid], for which the pIC50 is 8.05. Turning to `Cc1c(-c2c(C)c3c(c(C)c2[C@H](OC(C)(C)C)C(=O)O)CC(=O)N(Cc2ccccc2)C3)cc(F)c2c1CCCO2` (atropisomer, axis not shown; (M)) [Example 102, (S)(M)-2-(2-benzyl-7-(8-fluoro-5-methylchroman-6-yl)-5,8-dimethyl-3-oxo-1,2,3,4-tetrahydroisoquinolin-6-yl)-2-(tert-butoxy)acetic Acid], the pIC50 was 8.52.
